Measured values reported in patent US10189853B2, “Conformationally restricted 4-substituted-2,6-dimethylfuro[2,3-d]pyrimidines as anti-tumor agents” (DUQUESNE UNIVERSITY OF THE HOLY SPIRIT, priority 2014, dated 2019).
Like-named read-outs stand apart in the source and are kept apart here.

Assays:
[1] = system: cellular microtubules in A-10 cells; experiment: Microtubule depolymerization, indirect immunofluorescence; assay type: cell-based; details: for EC50: A-10 cells, 18 h, read-out: EC50 for MT depolymerization in A-10 cells
MDA-435 cells = experiment: Antiproliferative SRB assay; assay type: cell-based; details: 48 h, read-out: IC50 ± SD in MDA-435 cells
HeLa cells = experiment: Antiproliferative SRB assay; assay type: cell-based; details: 48 h, read-out: IC50 ± SD in HeLa
[2] = system: WTβ3 cells (HeLa overexpressing βIII tubulin); experiment: Antiproliferative SRB assay; assay type: cell-based; details: SRB, 48 h; read-out: IC50 ± SD in WTβ3
SKOV3 cells = experiment: Antiproliferative SRB assay; assay type: cell-based; details: 48 h, read-out: IC50 ± SD in SKOV3 cells
purified tubulin = experiment: Inhibition of tubulin assembly; assay type: biochemical; details: read-out: Inhibition tubulin assembly IC50 ± SD
[3] = system: colchicine site on tubulin; experiment: Inhibition of [3H]colchicine binding; details: 5 μM
[4] = system: M6/6 cells (SK-OV-3 expressing Pgp); experiment: Antiproliferative SRB assay; details: read-out: IC50 ± SD in M6/6 cells; SRB, 48 h
A431 cancer cells = experiment: A431 cytotoxicity (cell proliferation); assay type: cell-based, human; details: Homo sapiens, A-431
EGFR = EGFR (Homo sapiens (Human), UniProt P00533); experiment: EGFR kinase inhibition, phosphotyrosine ELISA cytoblot; assay type: cell-based; details: A431 cells
VEGFR-2 = VEGFR-2 (Homo sapiens (Human), UniProt P35968); experiment: VEGFR-2 kinase inhibition, phosphotyrosine ELISA cytoblot; assay type: cell-based; details: U251 cells, phosphotyrosine ELISA
PDGFR-β = PDGFR-β (Homo sapiens (Human), UniProt P09619); experiment: PDGFR-β kinase inhibition, phosphotyrosine ELISA cytoblot; assay type: cell-based; details: SH-SY5Y cells, phosphotyrosine ELISA
[5] = system: chicken embryo chorioallantoic membrane; experiment: Chorioallantoic membrane (CAM) assay of angiogenesis; details: Gallus gallus, 48 h, read-out: CAM angiogenesis inhibition

Sequence of PDGFR-β (P09619 33-1106): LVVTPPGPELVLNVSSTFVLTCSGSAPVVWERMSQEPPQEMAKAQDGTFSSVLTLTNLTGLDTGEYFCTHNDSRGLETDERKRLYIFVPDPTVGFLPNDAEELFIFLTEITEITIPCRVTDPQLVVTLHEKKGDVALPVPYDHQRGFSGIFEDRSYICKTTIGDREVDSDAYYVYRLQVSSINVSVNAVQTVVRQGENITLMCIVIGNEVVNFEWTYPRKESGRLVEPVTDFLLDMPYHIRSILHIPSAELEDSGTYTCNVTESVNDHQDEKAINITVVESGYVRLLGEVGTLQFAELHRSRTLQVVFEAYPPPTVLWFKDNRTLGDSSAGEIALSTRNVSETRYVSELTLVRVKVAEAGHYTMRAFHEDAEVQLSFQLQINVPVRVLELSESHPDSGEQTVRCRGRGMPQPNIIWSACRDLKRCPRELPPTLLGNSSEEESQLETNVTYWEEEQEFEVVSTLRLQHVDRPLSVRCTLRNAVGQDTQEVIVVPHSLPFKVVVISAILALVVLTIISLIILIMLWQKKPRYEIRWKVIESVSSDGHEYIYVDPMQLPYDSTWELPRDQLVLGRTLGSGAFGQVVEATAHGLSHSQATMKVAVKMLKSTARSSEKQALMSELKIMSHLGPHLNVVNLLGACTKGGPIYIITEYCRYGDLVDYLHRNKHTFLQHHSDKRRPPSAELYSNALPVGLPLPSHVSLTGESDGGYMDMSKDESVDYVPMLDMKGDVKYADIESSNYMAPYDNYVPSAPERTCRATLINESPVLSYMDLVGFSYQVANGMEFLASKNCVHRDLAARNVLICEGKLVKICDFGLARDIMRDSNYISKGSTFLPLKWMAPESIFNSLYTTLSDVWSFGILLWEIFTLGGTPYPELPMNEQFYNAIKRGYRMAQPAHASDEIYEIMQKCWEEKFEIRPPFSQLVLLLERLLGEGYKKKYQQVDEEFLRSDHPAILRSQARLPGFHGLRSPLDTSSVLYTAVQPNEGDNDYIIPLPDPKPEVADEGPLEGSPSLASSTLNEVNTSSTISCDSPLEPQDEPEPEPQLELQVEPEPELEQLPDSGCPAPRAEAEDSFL
Sequence of VEGFR-2 (P35968 20-1356): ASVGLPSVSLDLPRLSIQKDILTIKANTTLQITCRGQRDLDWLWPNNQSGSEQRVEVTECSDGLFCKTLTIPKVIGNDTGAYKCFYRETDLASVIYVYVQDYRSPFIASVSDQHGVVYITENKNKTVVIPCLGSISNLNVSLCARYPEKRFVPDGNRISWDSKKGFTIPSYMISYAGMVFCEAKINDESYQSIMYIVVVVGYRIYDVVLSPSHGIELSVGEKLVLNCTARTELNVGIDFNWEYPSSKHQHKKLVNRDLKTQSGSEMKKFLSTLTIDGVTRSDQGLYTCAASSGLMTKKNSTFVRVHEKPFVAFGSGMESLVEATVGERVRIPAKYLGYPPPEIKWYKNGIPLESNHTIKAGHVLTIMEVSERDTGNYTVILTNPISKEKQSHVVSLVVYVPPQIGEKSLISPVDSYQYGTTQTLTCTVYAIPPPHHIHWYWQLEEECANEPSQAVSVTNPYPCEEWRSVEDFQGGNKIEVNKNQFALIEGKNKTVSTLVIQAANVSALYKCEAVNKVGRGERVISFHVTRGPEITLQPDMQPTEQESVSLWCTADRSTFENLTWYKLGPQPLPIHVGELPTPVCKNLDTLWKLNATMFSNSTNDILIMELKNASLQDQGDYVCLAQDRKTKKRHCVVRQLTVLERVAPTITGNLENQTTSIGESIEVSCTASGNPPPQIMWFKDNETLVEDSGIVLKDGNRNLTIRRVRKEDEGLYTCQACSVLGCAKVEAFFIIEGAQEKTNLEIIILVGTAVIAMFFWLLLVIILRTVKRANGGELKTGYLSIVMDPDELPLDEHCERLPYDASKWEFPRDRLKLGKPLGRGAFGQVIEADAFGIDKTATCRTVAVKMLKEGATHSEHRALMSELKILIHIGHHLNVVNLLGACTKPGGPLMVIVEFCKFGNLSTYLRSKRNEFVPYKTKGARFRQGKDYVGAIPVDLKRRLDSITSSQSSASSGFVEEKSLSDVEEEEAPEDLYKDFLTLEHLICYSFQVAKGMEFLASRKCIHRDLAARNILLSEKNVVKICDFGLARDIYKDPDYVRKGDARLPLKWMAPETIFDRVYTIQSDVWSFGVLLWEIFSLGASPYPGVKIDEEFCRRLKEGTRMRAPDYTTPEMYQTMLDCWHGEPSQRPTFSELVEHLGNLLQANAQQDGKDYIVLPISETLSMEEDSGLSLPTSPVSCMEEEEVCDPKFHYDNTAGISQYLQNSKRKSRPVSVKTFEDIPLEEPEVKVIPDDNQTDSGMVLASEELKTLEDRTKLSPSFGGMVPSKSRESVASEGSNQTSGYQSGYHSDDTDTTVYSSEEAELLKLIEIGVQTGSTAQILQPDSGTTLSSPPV
Sequence of EGFR (P00533 25-1210): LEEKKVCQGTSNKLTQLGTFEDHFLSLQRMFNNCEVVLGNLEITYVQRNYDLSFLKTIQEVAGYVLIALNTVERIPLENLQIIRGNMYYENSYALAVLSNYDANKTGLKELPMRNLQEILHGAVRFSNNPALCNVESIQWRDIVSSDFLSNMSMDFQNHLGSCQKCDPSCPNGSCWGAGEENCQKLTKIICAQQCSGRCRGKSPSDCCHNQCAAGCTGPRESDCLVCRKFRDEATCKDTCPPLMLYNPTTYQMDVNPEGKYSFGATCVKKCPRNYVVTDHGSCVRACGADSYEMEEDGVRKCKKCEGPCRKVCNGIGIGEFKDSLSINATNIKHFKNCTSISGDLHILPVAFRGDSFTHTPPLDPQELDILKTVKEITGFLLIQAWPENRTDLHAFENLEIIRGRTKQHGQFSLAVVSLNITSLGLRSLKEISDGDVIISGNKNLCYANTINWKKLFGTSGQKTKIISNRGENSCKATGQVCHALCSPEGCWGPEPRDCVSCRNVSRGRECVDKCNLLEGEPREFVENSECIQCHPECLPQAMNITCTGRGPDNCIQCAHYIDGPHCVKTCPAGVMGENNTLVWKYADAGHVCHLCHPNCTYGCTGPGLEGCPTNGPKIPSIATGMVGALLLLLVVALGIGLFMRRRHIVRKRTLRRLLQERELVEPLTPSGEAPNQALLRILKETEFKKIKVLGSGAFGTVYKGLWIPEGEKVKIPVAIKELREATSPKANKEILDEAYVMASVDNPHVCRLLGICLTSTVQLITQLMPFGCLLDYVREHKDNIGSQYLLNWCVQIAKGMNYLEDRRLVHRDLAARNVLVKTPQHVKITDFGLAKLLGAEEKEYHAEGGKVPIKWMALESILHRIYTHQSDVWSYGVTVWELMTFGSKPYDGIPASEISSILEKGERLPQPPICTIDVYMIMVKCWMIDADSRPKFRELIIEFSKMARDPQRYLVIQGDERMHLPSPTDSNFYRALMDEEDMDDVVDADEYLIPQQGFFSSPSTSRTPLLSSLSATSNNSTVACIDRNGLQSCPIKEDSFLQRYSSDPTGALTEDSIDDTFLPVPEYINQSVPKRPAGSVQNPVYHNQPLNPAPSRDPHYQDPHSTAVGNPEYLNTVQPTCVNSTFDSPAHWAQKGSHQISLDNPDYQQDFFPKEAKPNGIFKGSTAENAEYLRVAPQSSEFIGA

Structure (SMILES)	IC50 (EGFR) [nM]	IC50 (VEGFR-2) [nM]	IC50 (PDGFR-β) [nM]	EC50 ([1]; Rattus norvegicus, A10) [nM]	EC50 [1] [nM]	IC50 (purified tubulin) [nM]	IC50 (A431 cancer cells) [nM]	other results
COc1ccc(/C=C\c2cc(OC)c(OC)c(OC)c2)cc1O [CA-4, combretastatin A-4, reference compound]	–	–	–	–	9.8	1000 ± 90	–	IC50 (MDA-435 cells): 5 ± 0.3 nM; IC50 (HeLa cells): 5.6 ± 0.3 nM; IC50 [2]: 5.7 ± 0.4 nM; IC50 (SKOV3 cells): 6.9 ± 0.1 nM; Inhibition of colchicine binding % inhibition ± SD [3]: 99 ± 0.2%; IC50 [4]: 3 ± 0.3 nM
COc1ccc(N(C)c2nc(C)nc3oc(C)cc23)cc1 [Compound 1, reference compound]	–	–	–	–	103	2400 ± 10	–	–
COc1ccc(N(C)c2nc(C)nc3oc(C)cc23)c(OC)c1 [Compound 2, N-(2,4-dimethoxyphenyl)-N,2,6-trimethylfuro[2,3-d]pyrimidin-4-amine]	–	–	–	–	–	–	17.1 ± 2	–

The next lines start with results.

IC50 (EGFR) [nM]	IC50 (VEGFR-2) [nM]	IC50 (PDGFR-β) [nM]	EC50 ([1]; Rattus norvegicus, A10) [nM]	Structure (SMILES)	EC50 [1] [nM]	IC50 (purified tubulin) [nM]	IC50 (A431 cancer cells) [nM]	other results
90.3 ± 10.2	18.6 ± 3	66.1 ± 8.1	–	COc1ccc(N(C)c2nc(C)nc3oc(C)cc23)cc1OC [Compound 3, N-(3,4-dimethoxyphenyl)-N,2,6-trimethylfuro[2,3-d]pyrimidin-4-amine]	–	–	9.7 ± 1.2	effect on cellular microtubules ([1]; in words): dose-dependent loss of cellular microtubules
–	–	166 ± 20.2	> 10000	COc1cc(N(C)c2nc(C)nc3oc(C)cc23)cc(OC)c1OC [Compound 4, N,2,6-trimethyl-N-(3,4,5-trimethoxyphenyl)furo[2,3-d]pyrimidin-4-amine]	–	–	> 300	IC50 [5]: > 300000 nM
298 ± 38.1	19.9 ± 2.1	50.1 ± 7.8	> 10000	Cc1nc(N(C)c2ccc3c(c2)OCO3)c2cc(C)oc2n1 [Compound 5, N-1,3-benzodioxol-5-yl-N,2,6-trimethylfuro[2,3-d]pyrimidin-4-amine]	–	–	48.9 ± 5.1	–
